Experimental findings from ChEMBL document CHEMBL5370579, “Structure-based lead optimization to improve potency and selectivity of a novel tetrahydroimidazo[1,2-a]pyridine-5-carboxylic acid series of heparanase-1 inhibitor” (Bioorg Med Chem, 2023) are described below.

In data set [1] the target is T1, Heparanase (Homo sapiens, UniProt Q9Y251).
T1 sequence (Q9Y251 whole entry): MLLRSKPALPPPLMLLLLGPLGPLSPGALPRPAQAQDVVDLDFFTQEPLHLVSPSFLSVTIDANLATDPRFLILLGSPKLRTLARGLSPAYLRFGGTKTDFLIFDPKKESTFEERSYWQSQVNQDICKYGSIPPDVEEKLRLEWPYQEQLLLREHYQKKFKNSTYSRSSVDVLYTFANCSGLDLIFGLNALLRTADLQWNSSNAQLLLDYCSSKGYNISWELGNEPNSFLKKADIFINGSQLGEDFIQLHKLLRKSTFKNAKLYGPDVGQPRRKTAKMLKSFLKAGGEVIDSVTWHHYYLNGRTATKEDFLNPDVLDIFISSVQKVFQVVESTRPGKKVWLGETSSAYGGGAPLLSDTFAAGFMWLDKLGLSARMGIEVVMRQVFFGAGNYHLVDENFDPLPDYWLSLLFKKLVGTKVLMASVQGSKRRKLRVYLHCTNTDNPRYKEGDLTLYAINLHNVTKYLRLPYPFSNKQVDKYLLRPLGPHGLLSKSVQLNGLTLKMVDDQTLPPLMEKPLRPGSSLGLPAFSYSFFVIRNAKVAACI
Kind of data set: Inhibition of recombinant human HPSE1 using biotinylated heparan sulfate-Eu cryptate as substrate pre-incubated for 10 mins followed by substrate addition and measured after 60 mins by fluorescence based HTRF assay. (In general: TR-FRET usually uses a lanthanide donor and a delayed reading to cut background.)

Data set [2] concerns the target T2, Beta-glucuronidase (Homo sapiens, UniProt P08236).
T2 sequence (P08236 whole entry): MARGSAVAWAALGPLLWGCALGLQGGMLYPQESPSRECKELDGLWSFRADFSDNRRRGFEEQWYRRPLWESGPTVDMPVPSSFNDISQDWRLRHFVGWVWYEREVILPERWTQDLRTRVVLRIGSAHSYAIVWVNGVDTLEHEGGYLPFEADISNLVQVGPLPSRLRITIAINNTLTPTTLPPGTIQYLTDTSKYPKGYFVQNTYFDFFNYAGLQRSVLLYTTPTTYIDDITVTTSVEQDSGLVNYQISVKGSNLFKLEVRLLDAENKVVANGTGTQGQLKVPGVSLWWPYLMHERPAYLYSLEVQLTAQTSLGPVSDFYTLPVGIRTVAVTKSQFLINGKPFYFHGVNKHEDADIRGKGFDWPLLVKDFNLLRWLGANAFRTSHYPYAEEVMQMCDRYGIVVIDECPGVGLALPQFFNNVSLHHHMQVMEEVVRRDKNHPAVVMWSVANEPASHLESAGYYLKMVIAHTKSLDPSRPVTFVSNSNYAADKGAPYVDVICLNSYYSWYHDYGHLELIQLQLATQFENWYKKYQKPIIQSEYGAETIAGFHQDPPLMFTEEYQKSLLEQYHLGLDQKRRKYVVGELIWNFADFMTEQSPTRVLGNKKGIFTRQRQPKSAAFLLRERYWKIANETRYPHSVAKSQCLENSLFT
Kind of data set: Inhibition of recombinant human GUSbeta using 4-MUG as substrate pre-incubated for 10 mins followed by substrate addition and measured after 60 mins by fluorescence based assay.

A short description of data set [3]: Half life in C57BL/6J mouse at 0.5 mg/kg, iv measured after 0.083 to 24 hrs by LC-MS/MS analysis. The format is ADME, organism-based. The note with it: in vivo, time 0.083-24 hrs.
The nature of data set [4]: Drug excretion in C57BL/6J mouse urine at 0.5 mg/kg, iv measured after 24 hrs by LC-MS/MS analysis. The format is ADME, organism-based. The following applies: read-out: Drug excretion.
The nature of data set [5]: Volume of distribution at steady state in C57BL/6J mouse at 0.5 mg/kg, iv measured after 0.083 to 24 hrs by LC-MS/MS analysis. The format is ADME, organism-based. The note with it: in vivo, time 0.083-24 hrs, read-out: Vdss.
A short description of data set [6]: Total clearance in C57BL/6J mouse at 0.5 mg/kg, iv measured after 0.083 to 24 hrs by LC-MS/MS analysis. It counts as ADME, organism-based. The note with it: in vivo, time 0.083-24 hrs.
Data set [7] can be described thus: Protein binding in C57BL/6J mouse serum at 1 ug/ml measured after 4 hrs by LC-MS/MS analysis. The format is ADME, cell-free. The following applies: at 1 µg/mL, read-out: PB (converted).
Data set [8] is described as follows: Inhibition of recombinant human GBA using 4-MUBDG as substrate pre-incubated for 10 mins followed by substrate addition and measured after 24 hrs by fluorescence based assay.
Data set [9] can be described thus: Drug concentration in C57BL/6J mouse plasma at 3 mg/kg, sc measured after 1 hrs by LC-MS/MS analysis. The format is ADME, organism-based.
Data set [10] can be described thus: Drug concentration in C57BL/6J mouse plasma at 100 mg/kg, sc measured after 1 hrs by LC-MS/MS analysis. The format is ADME, organism-based.
Data set [11] can be described thus: Drug concentration in C57BL/6J mouse plasma at 30 mg/kg, sc measured after 1 hrs by LC-MS/MS analysis. It counts as ADME, organism-based.
Data set [12] in a line: Drug concentration in C57BL/6J mouse plasma at 30 mg/kg, sc measured after 4 hrs by LC-MS/MS analysis. It counts as ADME, organism-based.
Data set [13] can be described thus: Drug concentration in C57BL/6J mouse plasma at 3 mg/kg, sc measured after 4 hrs by LC-MS/MS analysis. It counts as ADME, organism-based.
For data set [14], the system named is Mus musculus. Kind of data set: In vivo inhibition of HPSE1 in C57BL/6J mouse at 3 to 100 mg/kg, sc measured after 1 to 4 hrs. It counts as functional, organism-based. The following applies: dose 3-100 mg/kg, time 1-4 hrs.
Data set [15] is described as follows: Drug concentration in C57BL/6J mouse plasma at 100 mg/kg, sc measured after 4 hrs by LC-MS/MS analysis. The format is ADME, organism-based.
Data set [16] can be described thus: Inhibition of bovine liver beta-glucuronidase. The format is tissue-based, Bos taurus.

Molecules are shown by their SMILES. Activity calls are given as the source filed them. The rule behind the calls is not given here.

What is called IC50 is the concentration at which inhibition is half-maximal. The half-life is how long it takes for the measured level to halve. High values mean slow decline, low ones rapid decline. Broadly, the clearance is the rate of elimination divided by the concentration. Lower therefore signals a low capacity for elimination. For orientation: Ki means the equilibrium dissociation constant of an inhibitor or competing ligand from its target.

As to `O=C(O)[C@@H]1[C@@H](O)[C@H](O)[C@@H](O)c2nc(CCc3ccc(S(=O)(=O)c4ccccc4)cc3)cn21`, the IC50 in data set [1] was 748 nM.
With `O=C(O)[C@@H]1[C@@H](O)[C@H](O)[C@@H](O)c2nc(CCc3cccc(Oc4ccccc4)c3)cn21`, the IC50 was 8 nM in data set [2], 467 nM in data set [1] and 53 nM in [8]. In data set [3], this compound had a half-life of 1.6 h. Moreover, in data set [4], the dose excreted at 24 h stood at 44.2%. For the same compound, the Vd in data set [5] turned out to be 0.439 L/kg. This compound gave a clearance in data set [6] of 8.18 mL/min/kg. Also, the fraction unbound at 4 h, 1 ug/ml in data set [7] is 0.036.
As to `O=C(O)[C@@H]1[C@@H](O)[C@H](O)[C@@H](O)c2nc(C3CCN(C(=O)c4ccccc4Oc4ccccc4)CC3)cn21`, in data set [1], the IC50 amounted to 1750 nM.
On the same count and under the same terms, to `O=C(O)[C@@H]1[C@@H](O)[C@H](O)[C@@H](O)c2nc(CCc3ccc(Oc4ccccc4)cc3)cn21` belongs 586 nM.
As for `CO[C@H]1[C@H](O)[C@@H](O)c2nc(CCc3cccc(Oc4ccccc4)c3)cn2[C@@H]1C(=O)O`, the IC50 worked out at 839 nM in data set [2], 442 nM in data set [1] and 439 nM in data set [8]. The compound further had a half-life in [3] of 2.1 h. In addition, in data set [4], the dose excreted at 24 h came to 31.1%. Besides, the concentration at 1 h was 1240 ng/mL in data set [9], 24200 ng/mL in data set [10] and 9820 ng/mL in data set [11]. The Vd in [5] was found to be 0.666 L/kg. The concentration at 4 h in data set [12] turned out to be 1070 ng/mL; in data set [13], 191 ng/mL; in data set [15], 1880 ng/mL. This compound also showed a clearance in [6] of 5.83 mL/min/kg. For the same compound, the fraction unbound at 4 h, 1 ug/ml in data set [7] was 0.045. Besides, the inhibition result in data set [14] is “Active”.
`CC(C)c1ccc(Oc2cccc(CCc3cn4c(n3)[C@H](O)[C@@H](O)[C@H](O)[C@H]4C(=O)O)c2)cc1`: the IC50 in [1] was found to be 1380 nM.
On the same count and under the same terms, with `COc1c(CCc2cn3c(n2)[C@H](O)[C@@H](O)[C@H](O)[C@H]3C(=O)O)cccc1Oc1ccccc1` the figure was 1600 nM.
Take `COc1cccc(OC)c1Oc1cccc(CCc2cn3c(n2)[C@H](O)[C@@H](O)[C@H](O)[C@H]3C(=O)O)c1OC`: in data set [1], the IC50 amounted to 9950 nM.
Still for that read-out and setting: to `O=C(O)[C@@H]1[C@@H](O)[C@H](O)[C@@H](O)c2nc(CCc3ccc(CCc4ccccc4)cc3)cn21` belongs 2000 nM; to `Cc1ccc(S(=O)(=O)Nc2ccc(CCc3cn4c(n3)[C@H](O)[C@@H](O)[C@H](O)[C@H]4C(=O)O)cc2)cc1`, 1340 nM.
Consider `O=C(O)[C@@H]1[C@@H](O)[C@H](O)[C@@H](O)c2nccn21`, for which the affinity in data set [16] corresponds to a Ki of 12 nM.
For the compound `O=C(O)[C@@H]1[C@@H](O)[C@H](O)[C@@H](O)c2nc(-c3ccc(Oc4ccccc4)cc3)cn21`, in data set [1], the half-maximal inhibitory concentration (IC50) amounted to 1100 nM.
